Molecules are shown by their SMILES. pIC50: −log10 of the molar value. Where a name gives a salt, the structure may show the parent alone.

The first test concerns H1N1 (influenza A/New Caledonia/20/99). Briefly: Antiviral effect on A549 cells infected with H1N1. It is filed as cell-based, H1N1 A/New Caledonia/20/99 virus. The conditions noted are these: Human A549 cells, MOI of 0.1, 48 h post-infection, MUNANA hydrolysis readout. The procedure:
The antiviral effect of the compounds of the invention has been tested on A549 cell lines infected with H1N1 (influenza A/New Caledonia/20/99).
Human A549 cells (80,000 cells/well in a 96 well plate) were treated with a range of concentration of test molecules and immediately infected by H1N1 A/New Caledonia/20/99 virus (clinical isolate) at MOI of 0.1 in DMEM/1% Penicillin/streptomycin supplemented with 0.25 μg/ml TPCK trypsin (Sigma) and incubated at 37° C. in 5% CO2. 48 h post-infection, supernatants (25 μl) were collected and transferred into a 96-well black flat-bottom plate, mixed with 25 μl PBS with Ca++/Mg++(Thermo Fisher) and 50 μl of 2′-(4-Methylumbelliferyl)-α-D-N-acetylneuraminic acid sodium salt hydrate stock-solution (20 μM, MUNANA, Sigma). Plates were incubated 1 h at 37° C. and reaction is stopped by adding 100 μl of Stop Solution (glycine 0.1 M pH10.7/25% ethanol). The amount of fluorescent product released by MUNANA hydrolysis (4-MU) was measured in a Tecan spectrophotometer with excitation and emission wavelengths of 365 and 450 nm respectively.
With `Cc1ccccc1C(=O)Nc1sc2c(c1C(=O)O)CCC(C(C)(C)C)C2` (stereo not shown) [#87], the pIC50 (commonly the negative decadic logarithm of the IC50, by convention in mol/L) was 6.35.
In turn, `CC1CCCc2sc(NC(=O)c3ccccc3)c(C(=O)O)c21` (stereo not shown) [#88] had a pIC50 of 6.26.
Same read-out and setting: under `CC(C)(C)C1CCc2c(sc(NC(=O)c3ccccc3C(F)(F)F)c2C(=O)O)C1` (stereo not shown) [#100] stands 6.06.
Still for that read-out and setting: under `CC(C)(C)C1CCc2c(sc(NC(=O)c3ccccc3C(F)(F)F)c2C(=O)O)C1` (stereo not shown) [#109] stands 5.92; under `CC(C)(C)C1CCc2c(sc(NC(=O)c3ccc(F)cc3)c2C(=O)O)C1` (stereo not shown) [#236], 6.88.
As for `CC(C)(C)C1CCc2c(sc(NC(=O)c3ccc(F)cc3)c2C(=O)O)C1` (stereo not shown) [#237], the pIC50 was 6.68.
For the molecule `CC(C)(C)C1CCc2c(sc(NC(=O)c3ccccc3F)c2C(=O)O)C1` (stereo not shown) [#238], the pIC50 was 6.51.
Molecule `Cc1ccccc1C(=O)Nc1sc2c(c1C(=O)O)CCC(C(C)(C)C)C2` (stereo not shown) [#239] gave a pIC50 of 6.26.

Staying with this test, now noted: Influenza A virus, H1N1, A549, 48 h, Human A549 cells, MOI of 0.1, 48 h post-infection, MUNANA hydrolysis readout.
Turning to `O=C(Nc1sc2c(c1C(=O)O)CCCCC2)c1ccccc1` [#84], the pIC50 is 6.40.
`Cc1ccccc1C(=O)Nc1sc2c(c1C(=O)O)CCC(C)C2` (stereo not shown) [#86] had a pIC50 of 6.39.
On the same count and under the same terms, under `CC1CCCCC1C(=O)Nc1sc2c(c1C(=O)O)CCC(C(C)(C)C)C2` (stereo not shown) [#89] stands 6.23; under `COc1ccc(C(=O)Nc2sc3c(c2C(=O)O)CCC(C(C)(C)C)C3)nc1` (stereo not shown) [#91], 6.21; under `O=C(Nc1sc2c(c1C(=O)O)CCN(c1ccc(C(F)(F)F)cc1)C2)c1ccccc1` [#92], 6.18.
Turning to `CC(=O)Nc1ccc(C(=O)Nc2sc3c(c2C(=O)O)CCC(C(C)(C)C)C3)cc1` (stereo not shown) [#93], the pIC50 is 6.18.
Take `Cc1ccccc1C(=O)Nc1sc2c(c1C(=O)O)CCCC2` [#95]: the pIC50 is 6.14.
`CC(C)(C)C1CCc2c(sc(NC(=O)c3ccccc3C(F)(F)F)c2C(=O)O)C1` (stereo not shown) [#97]: the pIC50 was 6.10.
Still for that read-out and setting: in the case of `CC(C)(C)C1CCc2c(sc(NC(=O)c3ccc4c(c3)OC(F)(F)O4)c2C(=O)O)C1` (stereo not shown) [#99] it was 6.08.
On to `Cn1cc(C(=O)Nc2sc3c(c2C(=O)O)CCC(C(C)(C)C)C3)cn1` (stereo not shown) [#101], for which the pIC50 was 6.03.
In the case of `CC1CCCc2sc(NC(=O)c3cccc(OC(F)F)c3)c(C(=O)O)c21` (stereo not shown) [#102], the pIC50 was 6.01.
In turn, `COc1ccccc1C(=O)Nc1sc2c(c1C(=O)O)CCC(C(C)(C)C)C2` (stereo not shown) [#104] showed a pIC50 of 5.98.
Molecule `CC(C)(C)C(=O)Nc1sc2c(c1C(=O)O)CCC(c1ccccc1)C2` (stereo not shown) [#106] had a pIC50 of 5.96.
For `O=C(Nc1sc2c(c1C(=O)O)C(c1ccccc1)CCC2)c1ccc(OC(F)F)cc1` (stereo not shown) [#108], the negative-log IC50 (pIC50) was 5.93.
The same measure, in the same setting: under `Cc1ccoc1C(=O)Nc1sc2c(c1C(=O)O)CCC(C(C)(C)C)C2` (stereo not shown) [#110] stands 5.92; under `Cc1ccccc1C(=O)Nc1sc2cc(C(C)(C)C)ccc2c1C(=O)O` [#111], 5.86.
In turn, `COc1ccc(C(=O)Nc2sc3c(c2C(=O)O)CCN(c2ccc(F)cc2)C3)cc1OC` [#113] had a pIC50 of 5.86.
The molecule `CC1(C)Cc2c(sc(NC(=O)c3ccccc3)c2C(=O)O)CO1` [#116] had a pIC50 of 5.77.
Same read-out and setting: in the case of `Cc1cccc(C)c1C(=O)Nc1sc2c(c1C(=O)O)CCC(C(C)(C)C)C2` (stereo not shown) [#118] it was 5.71; in that of `COc1ccc(C(=O)Nc2sc3c(c2C(=O)O)CC(C)(C)OC3)cc1OC` [#119], 5.66; in that of `CC(C)(C)C1CCc2c(sc(NC(=O)N3CCCCC3)c2C(=O)O)C1` (stereo not shown) [#120], 5.64.
Same read-out and setting: in the case of `Cc1ccccc1C(=O)Nc1sc2c(c1C(=O)O)CCC2` [#121] it was 5.63; in that of `O=C(Nc1sc2c(c1C(=O)O)CCC(c1ccc(O)cc1)C2)c1ccccc1` (stereo not shown) [#122], 5.63; in that of `CC(C)(C)C1CCc2c(sc(NC(=O)c3ccncc3)c2C(=O)O)C1` (stereo not shown) [#123], 5.57.
Still for that read-out and setting: under `CC(C)(C)C1CCc2c(sc(NC(=O)c3ccc(OCCCN)cc3)c2C(=O)O)C1` (stereo not shown) [#124, hydrochloride salt] stands 5.57; under `CC(C)(C)C1CCc2c(sc(NC(=O)Cc3ccccc3)c2C(=O)O)C1` (stereo not shown) [#125], 5.55; under `Cc1ccccc1C(=O)Nc1sc2c(c1C(=O)O)CCN(C(=O)OC(C)(C)C)C2` [#126], 5.54.
The molecule `Cc1ccccc1C(=O)Nc1sc2ccccc2c1C(=O)O` [#128] showed a pIC50 of 5.30.
Still for that read-out and setting: under `Cc1ccccc1C(=O)Nc1sc2c(c1C(=O)O)CCN(CC(C)C)C2` [#129, formate salt] stands 4.78; under `COC(=O)CCCCCOc1ccc(C(=O)Nc2sc3c(c2C(=O)O)CCC(C(C)(C)C)C3)cc1` (stereo not shown) [#172], 6.29; under `CC1(C)Cc2c(sc(NC(=O)c3ccccc3)c2C(=O)O)C(C)(C)O1` [#175], 6.13.
The same measure, in the same setting: under `COC1CN(c2ccc(C(=O)Nc3sc4c(c3C(=O)O)CCC4)cc2)C1` [#207] stands 6.42; under `O=C(Nc1sc2c(c1C(=O)O)CCC2)c1ccccc1` [#210], 6.09; under `O=C(Nc1sc2c(c1C(=O)O)CCC2)c1ccc(NCC2CCOCC2)cc1` [#211], 6.59.
Still for that read-out and setting: in the case of `COC1CN(c2ccc(C(=O)Nc3sc4c(c3C(=O)O)CCCC4)cc2)C1` [#215] it was 6.96.
As to `O=C(Nc1sc2c(c1C(=O)O)CCCC2)c1ccc(NCC2CCOCC2)cc1` [#216], the pIC50 was 7.22.
In the case of `COC1CN(c2ccc(C(=O)Nc3sc4c(c3C(=O)O)CC(C)(C)OC4(C)C)cc2)C1` [#217], the pIC50 was 6.29.
Same read-out and setting: under `COCCNc1ccc(C(=O)Nc2sc3c(c2C(=O)O)CCC3)cc1` [#231] stands 6.05; under `CC1(C)Cc2c(sc(NC(=O)c3ccc(NC4CCOCC4)cc3)c2C(=O)O)C(C)(C)O1` [#232], 5.86.
`CC1(C)Cc2c(sc(NC(=O)c3ccc(NCC4CCOCC4)cc3)c2C(=O)O)C(C)(C)O1` [#233] gave a pIC50 of 6.66.
On the same count and under the same terms, under `COCCNc1ccc(C(=O)Nc2sc3c(c2C(=O)O)CC(C)(C)OC3(C)C)cc1` [#234] stands 6.01.

For the origin of these results see US11603368B2, “Fused thiophene derivatives and their uses” (ENYO PHARMA, priority 2018, dated 2023).
